Columns and labels:
Assay in all cases: relative viability (nuclei count vs DMSO), 5 days (fraction); higher = more cells survive
HCC-15 = tested on: HCC-15
Method in brief: (§1)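 Dosing by pin tool came one day after lung cancer cell lines were seeded in 1536-well plates, using either one drug or a fixed anchor-drug dose plus five library-drug doses (not always all listed) in √10 steps. After 5 days, nuclei were counted on 4× images. Relative viability is treated-well nuclei count divided by vehicle-well nuclei count, and values are medians of duplicate plates.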

NCI-H838 = tested on: NCI-H838
Method in brief: as §1

BEN = tested on: BEN
Method in brief: as §1

NCI-H2342 = tested on: NCI-H2342
Method in brief: as §1

NCI-H647 = tested on: NCI-H647
Method in brief: as §1

NCI-H460 = tested on: NCI-H460
Method in brief: as §1

NCI-H1355 = tested on: NCI-H1355
Method in brief: as §1

NCI-H23 = tested on: NCI-H23
Method in brief: as §1

LU99A = tested on: LU99A
Method in brief: as §1

LCLC-97TM1 = tested on: LCLC-97TM1
Method in brief: as §1

201T = tested on: 201T
Method in brief: as §1

NCI-H1395 = tested on: NCI-H1395
Method in brief: as §1

NCI-H2126 = tested on: NCI-H2126
Method in brief: as §1

NCI-H2405 = tested on: NCI-H2405
Method in brief: as §1

NCI-H322M = tested on: NCI-H322M
Method in brief: as §1

NCI-H650 = tested on: NCI-H650
Method in brief: as §1

EPLC-272H = tested on: EPLC-272H
Method in brief: as §1

HCC-78 = tested on: HCC-78
Method in brief: as §1

NCI-H2085 = tested on: NCI-H2085
Method in brief: as §1

PC-14 = tested on: PC-14
Method in brief: as §1

**Q.** Which results are given for `Cc1cn(-c2cc(NC(=O)c3ccc(C)c(Nc4nccc(-c5cccnc5)n4)c3)cc(C(F)(F)F)c2)cn1` [Nilotinib] + NC(=O)Nc1cc(-c2cccc(F)c2)sc1C(=O)N[C@H]1CCCNC1 [AZD7762] (partner 0.2 µM)?
**A.** relative viability (HCC-15; first compound 0.001 µM): 1.1; relative viability (HCC-15; first compound 0.003162 µM): 1.28; relative viability (HCC-15; first compound 0.01 µM): 1.39; relative viability (HCC-15; first compound 0.03162 µM): 1.25; relative viability (HCC-15; first compound 0.1 µM): 1.19; relative viability (NCI-H838; first compound 0.001 µM): 0.86; relative viability (NCI-H838; first compound 0.003162 µM): 1.01; relative viability (NCI-H838; first compound 0.03162 µM): 0.9; relative viability (NCI-H838; first compound 0.1 µM): 0.995; relative viability (BEN; first compound 0.001 µM): 0.76; relative viability (BEN; first compound 0.003162 µM): 0.649; relative viability (BEN; first compound 0.01 µM): 0.589; relative viability (BEN; first compound 0.03162 µM): 0.6; relative viability (BEN; first compound 0.1 µM): 0.53; relative viability (NCI-H2342; first compound 0.001 µM): 0.425; relative viability (NCI-H2342; first compound 0.003162 µM): 0.315; relative viability (NCI-H2342; first compound 0.01 µM): 0.411; relative viability (NCI-H2342; first compound 0.03162 µM): 0.463; relative viability (NCI-H2342; first compound 0.1 µM): 0.427; relative viability (NCI-H647; first compound 0.001 µM): 0.477; relative viability (NCI-H647; first compound 0.003162 µM): 0.41; relative viability (NCI-H647; first compound 0.01 µM): 0.359; relative viability (NCI-H647; first compound 0.03162 µM): 0.285; relative viability (NCI-H647; first compound 0.1 µM): 0.341; relative viability (NCI-H460; first compound 0.001 µM): 0.549; relative viability (NCI-H460; first compound 0.003162 µM): 0.603; relative viability (NCI-H460; first compound 0.01 µM): 0.389; relative viability (NCI-H460; first compound 0.03162 µM): 0.427; relative viability (NCI-H460; first compound 0.1 µM): 0.41; relative viability (NCI-H1355; first compound 0.001 µM): 0.718; relative viability (NCI-H1355; first compound 0.003162 µM): 0.782; relative viability (NCI-H1355; first compound 0.01 µM): 0.801; relative viability (NCI-H1355; first compound 0.03162 µM): 0.439; relative viability (NCI-H1355; first compound 0.1 µM): 0.583; relative viability (NCI-H23; first compound 0.001 µM): 0.186; relative viability (NCI-H23; first compound 0.003162 µM): 0.221; relative viability (NCI-H23; first compound 0.01 µM): 0.154; relative viability (NCI-H23; first compound 0.03162 µM): 0.152; relative viability (NCI-H23; first compound 0.1 µM): 0.122; relative viability (LU99A; first compound 0.001 µM): 0.247; relative viability (LU99A; first compound 0.003162 µM): 0.513; relative viability (LU99A; first compound 0.01 µM): 0.498; relative viability (LU99A; first compound 0.03162 µM): 0.33; relative viability (LU99A; first compound 0.1 µM): 0.199; relative viability (LCLC-97TM1; first compound 0.003162 µM): 0.366; relative viability (LCLC-97TM1; first compound 0.1 µM): 0.0966; relative viability (201T; first compound 0.001 µM): 0.568; relative viability (201T; first compound 0.003162 µM): 0.546; relative viability (201T; first compound 0.01 µM): 0.563; relative viability (201T; first compound 0.03162 µM): 0.424; relative viability (201T; first compound 0.1 µM): 0.317; relative viability (NCI-H1395; first compound 0.001 µM): 0.4; relative viability (NCI-H1395; first compound 0.01 µM): 0.37; relative viability (NCI-H1395; first compound 0.03162 µM): 0.361; relative viability (NCI-H1395; first compound 0.1 µM): 0.362; relative viability (NCI-H2126; first compound 0.001 µM): 0.965; relative viability (NCI-H2126; first compound 0.003162 µM): 1.14; relative viability (NCI-H2126; first compound 0.01 µM): 1.06; relative viability (NCI-H2126; first compound 0.03162 µM): 0.962; relative viability (NCI-H2126; first compound 0.1 µM): 0.606; relative viability (NCI-H2405; first compound 0.001 µM): 0.684; relative viability (NCI-H2405; first compound 0.003162 µM): 0.628; relative viability (NCI-H2405; first compound 0.01 µM): 0.665; relative viability (NCI-H2405; first compound 0.03162 µM): 0.557; relative viability (NCI-H2405; first compound 0.1 µM): 0.399; relative viability (NCI-H322M; first compound 0.001 µM): 0.597; relative viability (NCI-H322M; first compound 0.003162 µM): 0.525; relative viability (NCI-H322M; first compound 0.01 µM): 0.518; relative viability (NCI-H322M; first compound 0.03162 µM): 0.41; relative viability (NCI-H322M; first compound 0.1 µM): 0.407; relative viability (NCI-H650; first compound 0.001 µM): 1.08; relative viability (NCI-H650; first compound 0.003162 µM): 1.01; relative viability (NCI-H650; first compound 0.01 µM): 0.914; relative viability (NCI-H650; first compound 0.03162 µM): 0.918; relative viability (NCI-H650; first compound 0.1 µM): 0.721; relative viability (EPLC-272H; first compound 0.001 µM): 0.267; relative viability (EPLC-272H; first compound 0.003162 µM): 0.13; relative viability (EPLC-272H; first compound 0.01 µM): 0.164; relative viability (EPLC-272H; first compound 0.03162 µM): 0.186; relative viability (EPLC-272H; first compound 0.1 µM): 0.198; relative viability (HCC-78; first compound 0.001 µM): 0.668; relative viability (HCC-78; first compound 0.003162 µM): 0.442; relative viability (HCC-78; first compound 0.01 µM): 0.725; relative viability (HCC-78; first compound 0.03162 µM): 0.58; relative viability (HCC-78; first compound 0.1 µM): 0.628; relative viability (NCI-H2085; first compound 0.001 µM): 0.978; relative viability (NCI-H2085; first compound 0.003162 µM): 0.942; relative viability (NCI-H2085; first compound 0.01 µM): 1.03; relative viability (NCI-H2085; first compound 0.03162 µM): 0.793; relative viability (NCI-H2085; first compound 0.1 µM): 0.527; relative viability (PC-14; first compound 0.001 µM): 0.359; relative viability (PC-14; first compound 0.003162 µM): 0.285; relative viability (PC-14; first compound 0.01 µM): 0.399; relative viability (PC-14; first compound 0.03162 µM): 0.305
